Source: US20260125357A1, “LACTATE ENHANCING COMPOUNDS AND USES THEREOF” (GLIAPHARM SA, priority 2022, published 2026)

System: primary astrocytes
Assay: MTT mitochondrial activity assay in primary astrocytes
Format: cell-based, mouse
Conditions: different concentrations, after 1.5 h or 24 h
Procedure: (§1) Primary cultures of cerebrocortical astrocytes were obtained from 1 to 2-day-old OF1 mouse pups (Charles River Laboratories). Briefly, cortices were isolated and minced in small pieces under a dissecting microscope. The cells were incubated for 30 min at 37° C. in a solution containing 20 U/ml papain, 1 mM L-cysteine and 10 kU/ml DNase I. After dissociation, papain activity was stopped by the addition of fetal calf serum (FCS). Single-cell suspension was then obtained by mechanical dissociation, which consisted in cells trituration in a DMEM D7777 medium supplemented with 44 mm NaHCO3, 10 ml/L antibiotic/antimycotic solution and 10% FCS. The cells were seeded at an average density of ˜10′000 cells/cm^2 on poly-D-lysine coated 96- or 12-well culture plates, depending on their use, and grown in DMEM D7777 medium supplemented with 44 mm NaHCO3, 10 ml/L antibiotic/antimycotic solution and 10% FCS at 37° C. in a humidified atmosphere containing 5% CO2/95% air. Culture medium was renewed twice a week. Cells were stimulated and harvested between DIV14 and DIV17, when confluence and cell growth were optimal.
To monitor mitochondrial activity in astrocytes, which is linked to the metabolic process of glycolysis and production of lactate, astrocytes in 96-well plates were stimulated for 24 h (37° C. 5% CO2/95% air) with the compounds of the invention ranging from 10 nM to 10 μM.
After stimulation, 5 mg/ml thiazol blue tetrazolium bromide (MTT) in D5030 medium complemented with 5 mM D-glucose and 44 mM sodium bicarbonate (pH 7.2) was added to each well, and cells were incubated for 4 h at 37° C. (5% CO2). The medium was then removed and the amount of reduced MTT, i.e formazan, solubilized in DMSO (50 μl/well) was determined using a spectrophotometer (absorbance of 570 nm).
The mitochondrial activity was monitored in MTT colorimetric assay in primary astrocytes treated with Compounds (1), (2), (3), (4) (5), (9) and (10) at different concentrations after 1.5 h (FIG. 2 A, B, D, E, F, C, H, respectively) or 24 h (FIG. 2 H, I, K, L, M, J, N, respectively).

With CS(=O)(=O)c1ccc(Nc2nccc3cc(O)c(O)cc23)cc1 [Compound 5, 1-(4-methylsulfonylanilino)isoquinoline-6,7-diol] the “mitochondrial activity (MTT colorimetric assay)” value (“mitochondrial activity” below) was “none of the selected compounds had direct effect on mitochondrial activity”.
For COc1cc2ccnc(Nc3ccc(N4CCCC4=O)cc3)c2cc1OC [Compound 9, 1-[4-[(6,7-dimethoxy-1-isoquinolyl)amino]phenyl]pyrrolidin-2-one], the “mitochondrial activity” value was “none of the selected compounds had direct effect on mitochondrial activity”.
With C=COc1ccc2c(Nc3ccc(S(C)(=O)=O)cc3)nccc2c1 [Compound 10, N-(4-methylsulfonylphenyl)-6-vinyloxy-isoquinolin-1-amine] the “mitochondrial activity” value was “none of the selected compounds had direct effect on mitochondrial activity”.

System: primary astrocytes
Assay: Extracellular medium acidification (SNARF5) assay in astrocytes
Format: cell-based
Conditions: Mus musculus, Astrocyte; astrocytes in vitro; compounds 10 nM to 30 μM; read-out: Activity (EC50 class, extracellular medium acidification SNARF5)
Procedure: To assess for the effect of the compounds of the invention, those were tested in primary mouse astrocytes and astrocytes differentiated from human-derived induced pluripotent stem cells (iPSCs). Secretion of lactate was measured indirectly through the acidification of extracellular medium using extracellular pH sensor SNARE-5F-(AND-6)-CAR (SNARF5) as described below.
as §1
Secretion of lactate was measured indirectly through the acidification of extracellular medium using extracellular pH sensor SNARF-5F-(AND-6)-CAR (SNARF5). After washing cells twice with stimulation medium (DMEM (D5030, Sigma), 1 mM […], and 5 mM Glucose, pH 7.4) at 37° C., cells were stimulated with compounds at a final concentration ranging from 10 nM to 30 μM in 50 μl per well of stimulation medium supplemented with 10 μM of SNARF5 (Life Technologies Corporation). Each compound was tested in two different plates for duplicates. After 30, 60 and 90 min stimulation, fluorescence was read at exc. (excitation) 480 nm/emm. (emission) 580 nm and at exc 480 nm/emm. 630 nm. The ratio of fluorescence between 630 nm and 580 emission values, which is proportional to extracellular pH, was calculated. In each plate, 8 wells were used for negative controls (DMSO 0.1%) and 8 wells were used for positive controls (CCCP 2 μM in DMSO). Results are shown as % of positive control effect (0% and 100% being activities of the Veh and positive control, respectively).

CC(C)Oc1ccc2c(Nc3ccc(S(C)(=O)=O)cc3)nccc2c1 [Compound 11, 6-isopropoxy-N-(4-methylsulfonylphenyl)isoquinolin-1-amine] and C=COc1ccc2c(Nc3ccc(S(C)(=O)=O)cc3)nccc2c1 [Compound 10, N-(4-methylsulfonylphenyl)-6-vinyloxy-isoquinolin-1-amine] cannot be ordered by EC50: under 1000 nM for the first, under 1000 nM for the second.

CCc1cc2c(Nc3ccc(S(C)(=O)=O)cc3)nccc2cc1O [Compound 18, 7-ethyl-1-(4-methylsulfonylanilino)isoquinolin-6-ol] and CCc1cc2ccnc(Nc3ccc(S(C)(=O)=O)cc3)c2cc1O [Compound 25, 6-ethyl-1-[(4-methanesulfonylphenyl)amino]isoquinolin-7-ol] cannot be ordered by EC50: under 1000 nM for the first, under 1000 nM for the second.

COc1cc2ccnc(Nc3ccc(S(C)(=O)=O)cc3)c2cc1NCc1ccccc1 [Compound 20, N7-benzyl-6-methoxy-N1-(4-methylsulfonylphenyl)isoquinoline-1,7-diamine] and CCCNc1cc2c(Nc3ccc(S(C)(=O)=O)cc3)nccc2cc1OC [Compound 22, 6-methoxy-N1-(4-methylsulfonylphenyl)-N7-propyl-isoquinoline-1,7-diamine] cannot be ordered by EC50: under 1000 nM for the first, under 1000 nM for the second.

CCc1cc2c(Nc3ccc(S(C)(=O)=O)cc3)nccc2cc1OC [Compound 17, 7-ethyl-6-methoxy-N-(4-methylsulfonylphenyl)isoquinolin-1-amine] and C=Cc1cc2c(Nc3ccc(S(C)(=O)=O)cc3)nccc2cc1OC [Compound 16, 6-methoxy-N-(4-methylsulfonylphenyl)-7-vinyl-isoquinolin-1-amine] cannot be ordered by EC50: under 1000 nM for the first, under 1000 nM for the second.

CS(=O)(=O)c1ccc(Nc2nccc3cc(OCCF)c(OCCF)cc23)cc1 [Compound 34, 6,7-bis(2-fluoroethoxy)-N-(4-methanesulfonylphenyl)isoquinolin-1-amine] and CCOc1cc2ccnc(Nc3ccc(S(C)(=O)=O)cc3)c2cc1OCCF [Compound 33, 6-ethoxy-7-(2-fluoroethoxy)-N-(4-methanesulfonylphenyl)isoquinolin-1-amine] cannot be ordered by EC50: under 1000 nM for the first, under 1000 nM for the second.

CCOc1cc2ccnc(Nc3ccc(-c4ccon4)cc3)c2cc1OCC [Compound 28, 6,7-diethoxy-N-[4-(1,2-oxazol-3-yl)phenyl]isoquinolin-1-amine] and CCOc1cc2ccnc(Nc3ccc(-c4ccno4)cc3)c2cc1OCC [Compound 29, 6,7-diethoxy-N-[4-(1,2-oxazol-5-yl)phenyl]isoquinolin-1-amine] cannot be ordered by EC50: under 1000 nM for the first, under 1000 nM for the second.

CCOc1cc2ccnc(Nc3ccc(S(C)(=O)=O)cc3)c2cc1OCC [Compound 8, 6,7-diethoxy-N-(4-methylsulfonylphenyl)isoquinolin-1-amine] and CCOc1cc2ccnc(Nc3ccc(S(=O)(=O)CC)cc3)c2cc1OCC [Compound 26, N-[4-(ethanesulfonyl)phenyl]-6,7-diethoxyisoquinolin-1-amine] cannot be ordered by EC50: under 1000 nM for the first, under 1000 nM for the second.

CCOc1cc2ccnc(Nc3ccc(S(=O)(=O)C4CC4)cc3)c2cc1OCC [Compound 32, N-[4-(cyclopropanesulfonyl)phenyl]-6,7-diethoxyisoquinolin-1-amine] and CCOc1cc2ccnc(Nc3ccc(C4COC4)cc3)c2cc1OCC [Compound 27, 6,7-diethoxy-N-[4-(oxetan-3-yl)phenyl]isoquinolin-1-amine] cannot be ordered by EC50: under 1000 nM for the first, under 1000 nM for the second.

CS(=O)(=O)c1ccc(Nc2nccc3cc(O)c(O)cc23)cc1 [Compound 5, 1-(4-methylsulfonylanilino)isoquinoline-6,7-diol] and CS(=O)(=O)c1ccc(Nc2nccc3cc(O)c(Br)cc23)cc1 [Compound 19, 7-bromo-1-(4-methylsulfonylanilino)isoquinolin-6-ol] cannot be ordered by EC50: under 1000 nM for the first, under 1000 nM for the second.

Going from CS(=O)(=O)c1ccc(Nc2nccc3cc(-c4ncccn4)ccc23)cc1 [Compound 12, N-(4-methylsulfonylphenyl)-6-pyrimidin-2-yl-isoquinolin-1-amine] to CS(=O)(=O)c1ccc(Nc2nccc3ccc(O)cc23)cc1 [Compound 13, 1-(4-methylsulfonylanilino)isoquinolin-7-ol], the EC50 rises from under 1000 nM to over 1000 nM.

CCOc1cc2c(Nc3ccc(S(C)(=O)=O)cc3)nccc2cc1O [Compound 7, 7-ethoxy-1-(4-methylsulfonylanilino)isoquinolin-6-ol] and CCOc1cc2ccnc(Nc3ccc(S(C)(=O)=O)cc3)c2cc1O [Compound 6, 6-ethoxy-1-(4-methylsulfonylanilino)isoquinolin-7-ol] cannot be ordered by EC50: over 1000 nM for the first, over 1000 nM for the second.

First: CCNc1ccc2ccnc(Nc3ccc(S(C)(=O)=O)cc3)c2c1 [Compound 15, N7-ethyl-N1-(4-methylsulfonylphenyl)isoquinoline-1,7-diamine]
Second: CC(=O)Nc1ccc2ccnc(Nc3ccc(S(C)(=O)=O)cc3)c2c1 [Compound 14, N-[1-(4-methylsulfonylanilino)-7-isoquinolyl]acetamide]
The EC50 of the first is higher: over 1000 nM for the first, under 1000 nM for the second. The second is the more potent here.

COc1cc2ccnc(Nc3ccc(N4CCCC4=O)cc3)c2cc1OC [Compound 9, 1-[4-[(6,7-dimethoxy-1-isoquinolyl)amino]phenyl]pyrrolidin-2-one] and COc1cc2c(Nc3ccc(S(C)(=O)=O)cc3)nccc2cc1N1CCC1 [Compound 24, 6-(azetidin-1-yl)-7-methoxy-N-(4-methylsulfonylphenyl)isoquinolin-1-amine] cannot be ordered by EC50: under 1000 nM for the first, under 1000 nM for the second.

CCOc1cc2ccnc(Nc3ccc(S(C)(=O)=O)cc3F)c2cc1OCC [Compound 31, 6,7-diethoxy-N-(2-fluoro-4-methanesulfonylphenyl)isoquinolin-1-amine] and CCOc1cc2ccnc(Nc3ccc(S(C)(=O)=O)c(F)c3)c2cc1OCC [Compound 30, 6,7-diethoxy-N-(3-fluoro-4-methanesulfonylphenyl)isoquinolin-1-amine] cannot be ordered by EC50: under 1000 nM for the first, under 1000 nM for the second.

COc1cc2c(Nc3ccc(S(C)(=O)=O)cc3)nccc2cc1NCC1CC1 [Compound 23, N6-(cyclopropylmethyl)-7-methoxy-N1-(4-methylsulfonylphenyl)isoquinoline-1,6-diamine] and COc1cc2ccnc(Nc3ccc(S(C)(=O)=O)cc3)c2cc1NCC1CC1 [Compound 21, N7-(cyclopropylmethyl)-6-methoxy-N1-(4-methylsulfonylphenyl)isoquinoline-1,7-diamine] cannot be ordered by EC50: under 1000 nM for the first, under 1000 nM for the second.

CS(=O)(=O)c1ccc(Nc2nccc3cc(OCc4ccc(F)cc4)ccc23)cc1 [Compound 36, 6-[(4-fluorophenyl)methoxy]-N-(4-methanesulfonylphenyl)isoquinolin-1-amine] and CC(C)Oc1ccc2c(Cc3ccc(S(C)(=O)=O)cc3)nccc2c1 [Compound 35, 1-[(4-methanesulfonylphenyl)methyl]-6-(propan-2-yloxy)isoquinoline] cannot be ordered by EC50: under 1000 nM for the first, under 1000 nM for the second.

For CCCc1cc2c(Nc3ccc(S(C)(=O)=O)cc3)nccc2cc1OCC [Compound 37, 6-ethoxy-N-(4-methanesulfonylphenyl)-7-propylisoquinolin-1-amine], the EC50 was under 1000 nM.
